Source: US20140038967A1, “NOVEL USE FOR IMIDAZOTRIAZINONES” (ALGIAX PHARMACEUTICALS GMBH, priority 2011, published 2014)

How the values were obtained:
[1] = test system: severe spinal cord contusion injury; assay: Explorative rearing test after severe spinal cord contusion injury, intrathecal treatment; format: in vivo, Lewis rats; conditions: intrathecal 100 μM over 14 days
Description: (§1) Thirteen week-old female Lewis rats (Charles River, Sulzfeld Germany) were housed under a 12:12 h dark/light regime and allowed free access to water and food. After one week of habituation the animals underwent general anesthesia with a mixture of isoflurane and air (induction: 5% isoflurane, maintenance: 2.2% isofluorane). A T8 laminectomy was performed without rupturing the dura and a severe contusive SCI (25 gcm NYU/MASCIS II impactor) {Gruner, 1992 #3} was induced. Thereafter, the surgery continued with the procedure to position the silicon tube intrathecal catheter (7740, Alzet). Firstly, the catheter was filled with either the active or the vehicle solution. Secondly, another laminectomy was performed, again without rupturing the dura, at T11. At this position a small incision was made into the dura and the catheter was inserted at thoracic level 11 and pushed forward under lamina of T10-T9 to the lesion site at T8. The catheter was then cut at the appropriate length and connected to a filled osmotic minipump (Alzet, model 2002) which was placed subcutaneously. The overlying tissue was sutured, and a subcutaneous (s.c.) injection of 5 ml of Ringers Lactate was given. The different solutions (active or vehicle) were infused at a flow rate of 0.5 μl/h over a time period of 14 days. […]
When placed in a Plexiglas cylinder (18 cm diameter×35.0 cm height), animals spontaneously rear and contact the walls with their forepaws. Numbers, duration and types of rears were analyzed during the 3-min recorded observation period in the cylinder (Himes et al., 2006; Shumsky et al., 2003). […] The testing session was videotaped, and rearing behaviour was scored blindly at a later date. […]
Occasionally an animal progressed through several types of rears before touching down, in which case the time the animal spend in each rearing height was measured by counting the single video frames. Data were expressed as number of attempts (rears), attempt duration and the time each animal spend in the different rearing heights.

[2] = test system: severe spinal cord contusion injury; assay: BBB open field locomotor rating scale after severe spinal cord contusion injury, intrathecal treatment; format: in vivo, Lewis rats
Description: Intrathecal treatment with a imidazotriazinone after severe spinal cord contusion injury in the rat.
as §1, with “T8.” for “T8. The catheter was then cut at the appropriate length and connected to a filled osmotic minipump (Alzet, model 2002) which was placed subcutaneously. The overlying tissue was sutured, and a subcutaneous (s.c.) injection of 5 ml of Ringers Lactate was given. The different solutions (active or vehicle) were infused at a flow rate of 0.5 μl/h over a time period of 14 days.”
(§2) The BBB Open Field Locomotor Rating Scale: • The BBB locomotor rating scale was used to assess general locomotor performance (Basso et al., 1995). The score was assessed before injury and at 1, 3, 5, 7, 14, 21, 35, 42, 49, 56 and 63 days post operation (dpo) by 2 blinded observers.

[3] = test system: severe spinal cord contusion injury; assay: BBB open field locomotor rating scale after severe spinal cord contusion injury, oral treatment; format: in vivo, Lewis rats
Description: as §2
Oral Treatment with a Imidazotriazinone after Severe Spinal Cord Contusion Injury in the Rat.
Thirteen week-old female Lewis rats (Charles River, Sulzfeld Germany) were housed under a 12:12 h dark/light regime and allowed free access to water and food. After one week of habituation the animals underwent general anesthesia with a mixture of isoflurane and air (induction: 5% isoflurane, maintenance: 2.2% isofluorane). A Th10 laminectomy was performed without rupturing the dura and a severe contusive SCI (25 gcm NYU/MASCIS II impactor) (Gruner, 1992) was induced. After suturing muscle and skin, a subcutaneous (s.c.) injection of 5 ml of Ringers Lactate was given. Bladders were emptied manually 2 times a day until spontaneous voiding returned (usually within 1 week). The lesion severity was verified by the impact velocity and contusion depth of the impactor rod. Animals with an impact velocity error >5% were excluded from further analysis. After injury, individual rats were randomly assigned into a treatment group. The following groups were used: […]

embryonic DRG explants = assay: Axonal growth and Schwann cell expansion in embryonic DRG explants; format: cell-based, Wistar rat
Description: In vitro experiments with an imidazotriazinone to improve axonal growth and Schwann cell expansion in embryonic DRG explants of rats.
Outgrowth studies with 7-(4-tert-butylcyclohexyl)-5-ethyl-2-phenylimidazo[5,1-f][1,2,4]triazin-4(3H)-one or the vehicle were performed on embryonic neural tissue. DRGs of thoracic, lumbar, and sacral levels were prepared from Wistar rat embryos E18-20 and processed in ice cold 0.6% glucose in PBS. Harvested DRGs were freed from attaching nerve fibres, dissected, and transferred onto poly-D-lysine- and laminin-coated glass coverlips. To avoid cluster formation, a maximum of two DRG explants was transferred onto a single glass coverslip. Following an initial attachment phase, the pre-incubation medium was replaced by fully supplemented growth medium spiked with the test item (7-(4-tert-butylcyclohexyl)-5-ethyl-2-phenylimidazo[5,1-f][1,2,4]triazin-4(3H)-one groups 2 and 3) or vehicle (DMF, group 1) and incubated at 37° C./10% CO2 for additional 22 hours in vitro. Following 22 hours in vitro, the DRG explants were fluorescently labelled and axonal growth and Schwann cell expansion were quantitatively assessed.
The following experimental groups were included into the study: • Fully supplemented growth medium with 0.1% vehicle. • Fully supplemented growth medium with 0.1% vehicle and 7-(4-tert-butylcyclohexyl)-5-ethyl-2-phenylimidazo[5,1-f][1,2,4]triazin-4(3H)-one at a final concentration of 0.01 μM. • Fully supplemented growth medium with 0.1% vehicle and 7-(4-tert-butylcyclohexyl)-5-ethyl-2-phenylimidazo[5,1-f][1,2,4]triazin-4(3H)-one at a final concentration of 0.1 μM. • Fully supplemented growth medium with 0.1% vehicle and 7-(4-tert-butylcyclohexyl)-5-ethyl-2-phenylimidazo[5,1-f][1,2,4]triazin-4(3H)-one at a final concentration of 1 μM.

[4] = compared to vehicle control animals (FIG. 3)
[5] = tested 0.01, 0.1 and 1 μM, 22 hours in vitro

In the case of `CCc1nc(C2CCC(C(C)(C)C)CC2)n2nc(-c3ccccc3)[nH]c(=O)c12` (stereo not drawn) [7-(4-tert-butylcyclohexyl)-5-ethyl-2-phenylimidazo[5,1-f][1,2,4]triazin-4(3H)-one], the “duration of rearing attempts” value [1, 4] is reported as “longer in time”, the “height reached by forepaws in rearing attempts” value [1, 4] is reported as “reached much higher” and the “types of rears performed” value ([1]; vehicle animals only crouch or rear) is reported as “able to perform standing and even reaching”. The “BBB locomotor rating scale, treatment effect over the entire time-period of the assessment” value ([2]; intrathecal 100 μM, 0.5 μl/h over 14 days, ANOVA-RM p=0.013 vs vehicle (FIG. 2)) was “significant effect”, the “functional recovery after severe spinal cord contusion (overall, example 2)” value ([2]; intrathecal treatment, rat) was “significantly improves functional recovery” and the “BBB score at steady state” value ([3]; 10 mg in vehicle, vehicle animals 7.8 (FIG. 4)) was 9.0. The “BBB score at the end of the experiment compared to vehicle controls” value ([3]; 10 mg, DPO 56, Students T-Test p=0.0012 (FIG. 5)) was “performed significantly better”, the “Schwann cell numbers compared to vehicle-treated cultures” value (embryonic DRG explants; 0.01-1 μM, 22 hours in vitro) was “increased nearly fourfold” and the “Schwann cell expansion (numbers of Schwann cells outside the DRG explant core)” value (embryonic DRG explants; 0.01-1 μM, 22 hours in vitro (FIG. 1B)) was “significant increase”. For the same molecule, the “growth area of outgrowing axons” value (embryonic DRG explants; 0.01-1 μM, 22 hours in vitro, compared to vehicle-treated cultures (FIG. 1A)) was “significant increase”, the “concentration at which Schwann cell numbers were highest” value (embryonic DRG explants; [5]) was 0.1 µM and the “concentration at which elevation of axonal growth areas was highest” value (embryonic DRG explants; [5]) was 0.1 µM.
